Read-outs that look alike come from different tables or passages of the source.
What was measured:
AMPA receptor GluA2/3 = target: T1, AMPA receptor GluA2/3 (Homo sapiens, UniProt P42262+P42263); experiment: Two-electrode voltage clamp, AMPA receptor GluA2/3 expressed in Xenopus oocytes; type: cell-based
T1 construct: expressed in transfected cells; host or cells: Xenopus laevis oocytes injected with cRNA (1:1 mix)
Experimental: The AMPA receptor (flip isoform) cDNAs inserted in a SP6 polymerase expression vector (pSP6T) were a generous gift from Prof. Ralf Schoepfer (NPP, UCL). […] AMPA receptor cRNAs were mixed in a nominal 1:1 ratio and ∼5 ng was injected per oocyte.
(§1) Xenopus laevis oocytes were purchased from the European Xenopus Resource Centre, University of Portsmouth. Stage V to VI oocytes were mechanically dissected and then subjected to gentle shaking for ∼30–50 min at room temperature with modified Barth’s solution (in mM): 88 NaCl, 1 KCl, 2.4 NaHCO3, 0.82 MgCl2, 0.77 CaCl2, 15 Tris-Cl, adjusted to pH 7.4 with NaOH (Sigma-Aldrich), supplemented with 50 IU/ml penicillin and 50 µg/ml streptomycin (Invitrogen) and 50 µg/ml tetracycline (Sigma-Aldrich) and 1% collagenase (type 1A). Healthy oocytes were manually defolliculated and the injections of cRNA for homomeric subunits alone (GluA1), or heteromeric mixtures of two subunits together (GluA1/GluA2 or GluA2/GluA3) were made using an automated Drummond Nanoinject II injector. The oocytes were then incubated at 17°C in modified Barth’s solution for at least 48 h before use in electrophysiological recordings.
Experiments were performed at room temperature (∼21–23°C). […] Current and voltage electrodes were filled with 300 mM KCl and made from thin-walled borosilicate glass (GC150TF-7.5, Harvard Apparatus) using a PC-10 electrode puller (Narashige Instruments) and had resistances of 0.5–2 MΩ. […] Compounds were dissolved in distilled water or DMSO and dissolved in bathing solution to achieve their final concentrations during experiments, and were applied under gravity flow during the experiment by using a multi-valve perfusion system (VC3-8C, ALA Scientific Instruments). The bath solutions were perfused at a rate of 10 ml/min. […] Data acquisition was performed using the Windows PC-based program, WinEDR v3.0.6 (John Dempster, University of Strathclyde, UK).
Statistical analysis was performed using ANOVA with Tukey post hoc test, paired t-test or unpaired t-test.

AMPA receptor GluA1 = target: T2, AMPA receptor GluA1 (Homo sapiens, UniProt P42261); experiment: Two-electrode voltage clamp, homomeric GluA1 AMPA receptor expressed in Xenopus oocytes; type: cell-based
T2 construct: expressed in transfected cells; host or cells: Xenopus laevis oocytes injected with cRNA
T2 sequence (P42261 19-906 isoform P42261-2 limits assumed): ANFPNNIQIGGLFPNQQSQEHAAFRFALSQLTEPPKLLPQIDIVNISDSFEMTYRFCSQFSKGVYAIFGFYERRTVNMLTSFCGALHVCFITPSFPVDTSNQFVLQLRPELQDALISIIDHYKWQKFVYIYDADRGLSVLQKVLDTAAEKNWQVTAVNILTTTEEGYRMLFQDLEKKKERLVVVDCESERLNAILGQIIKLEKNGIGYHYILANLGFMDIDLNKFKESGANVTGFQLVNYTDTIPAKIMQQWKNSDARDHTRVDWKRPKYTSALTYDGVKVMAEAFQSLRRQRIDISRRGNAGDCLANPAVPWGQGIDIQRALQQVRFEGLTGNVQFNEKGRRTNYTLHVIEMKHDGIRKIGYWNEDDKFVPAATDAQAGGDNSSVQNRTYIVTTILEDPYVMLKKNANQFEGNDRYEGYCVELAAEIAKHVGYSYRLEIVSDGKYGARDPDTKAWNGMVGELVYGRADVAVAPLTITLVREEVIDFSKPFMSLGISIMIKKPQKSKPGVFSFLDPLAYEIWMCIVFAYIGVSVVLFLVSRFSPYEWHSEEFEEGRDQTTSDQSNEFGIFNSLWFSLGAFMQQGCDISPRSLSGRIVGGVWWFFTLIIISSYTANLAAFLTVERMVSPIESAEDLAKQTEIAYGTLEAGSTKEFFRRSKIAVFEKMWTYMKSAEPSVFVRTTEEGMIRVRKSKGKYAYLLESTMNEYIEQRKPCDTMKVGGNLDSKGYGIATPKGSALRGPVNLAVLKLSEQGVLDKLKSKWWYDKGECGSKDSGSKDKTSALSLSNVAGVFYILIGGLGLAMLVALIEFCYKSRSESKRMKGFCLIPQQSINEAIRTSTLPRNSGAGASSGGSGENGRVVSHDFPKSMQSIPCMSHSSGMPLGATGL
Experimental: The AMPA receptor (flip isoform) cDNAs inserted in a SP6 polymerase expression vector (pSP6T) were a generous gift from Prof. Ralf Schoepfer (NPP, UCL). RNA was transcribed in vitro from MluI linearized transcripts using the SP6 Promega RiboMAX® RNA synthesis kit according to manufacturer’s protocols except for the addition of 0.75 mM capping nucleotide m^7G(5’)ppp(5’)G (Promega) and 1.6 mM GTP. cRNA concentrations and integrity were estimated by the intensity of fluorescence bands in RNA denaturating gels. AMPA receptor cRNAs were mixed in a nominal 1:1 ratio and ∼5 ng was injected per oocyte.
as §1
Experiments were performed at room temperature (∼21–23°C). An oocyte was placed in a recording chamber (0.3–0.5 ml volume) and perfused with ND96 solution (96 mM NaCl, 2 mM KCl, 1.8 mM CaCI2, 1 mM MgCl2, 5 mM HEPES, with pH adjusted to 7.5). Current and voltage electrodes were filled with 300 mM KCl and made from thin-walled borosilicate glass (GC150TF-7.5, Harvard Apparatus) using a PC-10 electrode puller (Narashige Instruments) and had resistances of 0.5–2 MΩ. Oocytes were voltage-clamped to a holding potential of −50 mV or −60 mV using a Turbo TEC-03 amplifier (npi electronics). […]

T1 sequence (P42262 22-883 isoform P42262-2 limits assumed): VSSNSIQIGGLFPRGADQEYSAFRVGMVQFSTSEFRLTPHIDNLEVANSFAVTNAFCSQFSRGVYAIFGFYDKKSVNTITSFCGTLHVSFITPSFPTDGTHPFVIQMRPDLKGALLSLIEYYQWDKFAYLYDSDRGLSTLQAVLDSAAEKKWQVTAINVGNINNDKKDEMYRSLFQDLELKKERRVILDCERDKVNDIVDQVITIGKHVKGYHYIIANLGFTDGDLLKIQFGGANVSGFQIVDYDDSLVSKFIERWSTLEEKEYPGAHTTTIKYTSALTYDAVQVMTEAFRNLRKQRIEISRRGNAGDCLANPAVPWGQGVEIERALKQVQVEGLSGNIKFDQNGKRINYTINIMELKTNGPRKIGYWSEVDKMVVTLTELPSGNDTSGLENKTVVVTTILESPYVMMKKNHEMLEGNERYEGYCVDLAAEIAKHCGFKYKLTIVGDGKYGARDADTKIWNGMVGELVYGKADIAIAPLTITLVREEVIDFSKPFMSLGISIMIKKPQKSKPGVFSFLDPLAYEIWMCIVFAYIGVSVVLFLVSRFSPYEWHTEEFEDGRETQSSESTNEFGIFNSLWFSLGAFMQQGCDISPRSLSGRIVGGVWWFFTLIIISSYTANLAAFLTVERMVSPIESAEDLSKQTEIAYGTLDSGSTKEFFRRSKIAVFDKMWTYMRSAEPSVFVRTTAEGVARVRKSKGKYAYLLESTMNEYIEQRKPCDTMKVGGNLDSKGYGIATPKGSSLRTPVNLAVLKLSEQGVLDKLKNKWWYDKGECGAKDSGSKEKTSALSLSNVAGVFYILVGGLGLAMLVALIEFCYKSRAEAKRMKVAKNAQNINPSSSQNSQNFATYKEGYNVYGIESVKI
T1 sequence (P42263 29-894 isoform P42263-2 limits assumed): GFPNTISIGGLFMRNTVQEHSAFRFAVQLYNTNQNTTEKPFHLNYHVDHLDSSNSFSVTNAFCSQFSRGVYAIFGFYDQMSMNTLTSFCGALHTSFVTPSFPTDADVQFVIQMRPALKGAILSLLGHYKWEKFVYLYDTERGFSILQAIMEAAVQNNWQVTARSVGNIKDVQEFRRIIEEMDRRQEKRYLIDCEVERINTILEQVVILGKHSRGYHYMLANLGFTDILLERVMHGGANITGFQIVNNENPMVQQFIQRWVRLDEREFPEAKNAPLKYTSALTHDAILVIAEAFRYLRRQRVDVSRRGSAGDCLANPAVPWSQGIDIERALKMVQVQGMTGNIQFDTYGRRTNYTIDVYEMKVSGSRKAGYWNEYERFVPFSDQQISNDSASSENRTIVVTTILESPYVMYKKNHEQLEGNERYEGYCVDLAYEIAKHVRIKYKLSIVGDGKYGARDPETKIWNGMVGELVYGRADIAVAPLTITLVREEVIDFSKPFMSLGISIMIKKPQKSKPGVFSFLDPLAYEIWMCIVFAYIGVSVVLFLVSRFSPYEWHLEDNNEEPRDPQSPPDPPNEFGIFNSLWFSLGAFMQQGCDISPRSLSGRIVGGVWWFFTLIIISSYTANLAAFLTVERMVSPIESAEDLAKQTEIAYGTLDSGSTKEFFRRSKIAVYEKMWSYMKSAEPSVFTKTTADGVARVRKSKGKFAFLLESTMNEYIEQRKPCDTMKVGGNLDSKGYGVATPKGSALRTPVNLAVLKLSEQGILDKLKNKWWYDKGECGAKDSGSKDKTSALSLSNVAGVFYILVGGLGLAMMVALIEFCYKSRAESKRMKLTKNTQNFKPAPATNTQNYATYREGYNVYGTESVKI

inhibition at 100 µM (AMPA receptor GluA2/3; 100 µM, read-out: inhibition of AMPA-mediated currents): ~20% | decrease in AMPA receptor responses (AMPA receptor GluA2/3; 1 mM): 60–70% | AMPA receptor current following activation with AMPA (AMPA receptor GluA2/3; agonist AMPA 30 µM, n = 8): 16.7 ± 2.7 % of AMPA alone | AMPA receptor currents (AMPA receptor GluA2/3; compound 1 mM, currents elicited by 100 µM L-glutamate, −50 mV): 32.4 ± 2.0 % of control | IC50 (AMPA receptor GluA2/3; glutamate 100 µM, membrane potential −40 mV, n = 6, read-out: IC50): 430 ± 90 µM | IC50 (AMPA receptor GluA2/3; glutamate 100 µM, membrane potential −80 mV, n = 6, read-out: IC50): 1110 ± 50 µM | IC50 (AMPA receptor GluA2/3; glutamate 100 µM, read-out: IC50, inhibition of glutamate-induced AMPA receptor current): 520 ± 20 µM | IC50 (AMPA receptor GluA2/3; glutamate 1 mM, n = 10, read-out: IC50, inhibition of glutamate-induced AMPA receptor current): 540 ± 30 µM | IC50 (AMPA receptor GluA1): 2090 µM
Compound: CCCCCCCCCC(=O)O [decanoic acid]

— publication PMC4805082, “Seizure control by decanoic acid through direct AMPA receptor inhibition” (Brain, 2015)
